Laboratory results taken from ChEMBL document CHEMBL5370659 (J Med Chem, 2023).
≈ marks a conversion by molar mass, not a printed value. Each block holds one molecule with its values, some of them ahead of it.

How the values were obtained:
[1] = target: T1, Tryptophan 5-hydroxylase 1 (Homo sapiens, UniProt P17752); experiment: Inhibition of recombinant MBP-tagged full length human THP1 using L-Trp as substrate assessed as formation of 5-HTP by measuring fluorescent property
T1 sequence (P17752 whole entry): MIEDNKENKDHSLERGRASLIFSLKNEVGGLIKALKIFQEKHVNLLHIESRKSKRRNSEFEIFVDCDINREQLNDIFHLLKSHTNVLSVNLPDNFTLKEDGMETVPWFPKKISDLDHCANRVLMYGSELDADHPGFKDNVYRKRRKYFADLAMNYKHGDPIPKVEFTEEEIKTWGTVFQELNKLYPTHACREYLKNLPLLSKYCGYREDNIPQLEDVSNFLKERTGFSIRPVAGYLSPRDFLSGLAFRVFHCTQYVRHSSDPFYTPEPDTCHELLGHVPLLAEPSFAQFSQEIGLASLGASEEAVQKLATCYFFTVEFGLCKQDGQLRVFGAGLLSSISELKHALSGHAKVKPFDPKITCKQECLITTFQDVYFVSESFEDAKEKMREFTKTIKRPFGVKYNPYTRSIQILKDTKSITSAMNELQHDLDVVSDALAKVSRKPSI

[2] = target: T2, Tryptophan 5-hydroxylase 2 (Homo sapiens, UniProt Q8IWU9); experiment: Inhibition of recombinant MBP-tagged full length human THP2 using L-Trp as substrate assessed as formation of 5-HTP by measuring fluorescent property
T2 sequence (Q8IWU9 whole entry): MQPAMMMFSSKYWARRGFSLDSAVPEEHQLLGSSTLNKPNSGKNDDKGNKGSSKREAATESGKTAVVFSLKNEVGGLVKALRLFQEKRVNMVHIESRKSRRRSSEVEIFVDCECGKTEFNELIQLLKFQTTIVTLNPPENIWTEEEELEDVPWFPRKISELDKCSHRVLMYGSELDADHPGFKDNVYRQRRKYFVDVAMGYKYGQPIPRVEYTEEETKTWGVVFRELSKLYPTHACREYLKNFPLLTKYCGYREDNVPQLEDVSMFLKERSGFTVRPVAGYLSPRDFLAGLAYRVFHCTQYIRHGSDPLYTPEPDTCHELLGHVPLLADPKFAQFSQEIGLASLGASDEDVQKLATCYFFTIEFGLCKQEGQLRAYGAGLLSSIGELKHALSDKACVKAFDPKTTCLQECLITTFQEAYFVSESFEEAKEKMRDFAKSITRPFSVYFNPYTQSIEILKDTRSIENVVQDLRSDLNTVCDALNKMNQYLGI

[3] = Metabolic stability in rat hepatocytes assessed as half life; assay type: ADME, cell-based, Hepatocyte
[4] = Apparent permeability across basal to apical side in human Caco-2 cells at pH 6.5/7.4 measured at 5 uM by LC-MS/MS analysis; assay type: ADME, cell-based; details: Caco-2, pH 6.5
[5] = Plasma protein binding in rat; assay type: ADME, cell-free; details: read-out: PPB (converted)
[6] = Metabolic stability in human hepatocytes assessed as half life; assay type: ADME, cell-based, Hepatocyte
[7] = Metabolic stability in human hepatocytes assessed as intrinsic clearance; assay type: ADME, cell-based, Hepatocyte; details: read-out: CLH
[8] = Apparent permeability across apical to basal side in human Caco-2 cells at pH 6.5/7.4 measured at 5 uM by LC-MS/MS analysis; assay type: ADME, cell-based; details: Caco-2, pH 6.5
[9] = Solubility in simulated intestinal fluid by HPLC-UV analysis; assay type: physicochemical
[10] = Solubility in simulated gastric fluid by HPLC-UV analysis; assay type: physicochemical
[11] = Aqueous solubility of the compound in pH 7.4 PBS buffer by HPLC-UV analysis; assay type: physicochemical
[12] = Plasma protein binding in human; assay type: ADME, cell-free; details: read-out: PPB (converted)
[13] = Metabolic stability in rat hepatocytes assessed as intrinsic clearance; assay type: ADME, cell-based, Hepatocyte; details: read-out: CLH
[14] = Permeability across apical to basal side in MDCK-MDR1 cells at pH 6.5/7.4 measured at 5 uM by LC-MS/MS analysis; assay type: ADME, cell-based, Canis lupus familiaris; details: dog, MDCK-MDR1, pH 6.5
[15] = Permeability across basal to apical side in MDCK-MDR1 cells at pH 6.5/7.4 measured at 5 uM by LC-MS/MS analysis; assay type: ADME, cell-based, Canis lupus familiaris; details: dog, MDCK-MDR1, pH 6.5

SMILES: CCn1c(=O)[nH]c(=O)c2c1nc(Cc1cn3cc(C)sc3n1)n2CC1CCC1
IC50 [1]: 47 nM
IC50 [2]: 31 nM

SMILES: CCn1c(=O)[nH]c(=O)c2c1nc(Cc1cn3cc(Cl)sc3n1)n2Cc1ccccc1
half-life [3]: > 60 min
Papp B→A at 5 µM [4]: 47.7 ×10⁻⁶ cm/s
fraction unbound [5]: 0.25
half-life [6]: > 60 min
CLint scaled [7]: < 115 mL/min/kg
Papp A→B at 5 µM [8]: 29.4 ×10⁻⁶ cm/s
solubility [9]: 12.7 µM (≈ 5.6 µg/mL)
solubility [10]: 198 µM (≈ 87.1 µg/mL)
solubility [11]: 3.7 µM (≈ 1.63 µg/mL)
fraction unbound [12]: 0.23
CLint scaled [13]: < 115 mL/min/kg

SMILES: CCn1c(=O)[nH]c(=O)c2c1nc(Cc1cn3c(n1)CCCC3)n2CC1COC1
IC50 [1]: 772 nM
IC50 [2]: 57 nM

SMILES: CCn1c(=O)[nH]c(=O)c2c1nc(Cc1cn3cc(C)sc3n1)n2Cc1cccc(C(=O)O)c1
IC50 [1]: 357 nM
IC50 [2]: 58 nM

SMILES: CCn1c(=O)[nH]c(=O)c2c1nc(Cc1cn3cc(C)sc3n1)n2Cc1ccccc1
half-life [3]: 13 min
Papp B→A at 5 µM [4]: 53.9 ×10⁻⁶ cm/s
fraction unbound [5]: 0.21
half-life [6]: 22 min
CLint scaled [7]: 315 mL/min/kg
Papp A→B at 5 µM [8]: 24.7 ×10⁻⁶ cm/s
solubility [9]: 48.5 µM (≈ 20.4 µg/mL)
solubility [10]: 177 µM (≈ 74.4 µg/mL)
solubility [11]: 35.1 µM (≈ 14.8 µg/mL)
fraction unbound [12]: 0.24
CLint scaled [13]: 514 mL/min/kg

SMILES: CCn1c(=O)[nH]c(=O)c2c1nc(Cc1cn3cc(C)sc3n1)n2CC1CCN(C(C)C)CC1
IC50 [1]: > 10000 nM
IC50 [2]: > 10000 nM

SMILES: CCn1c(=O)[nH]c(=O)c2c1nc(Cc1cn3c(n1)CCCC3)n2Cc1cccc(C(=O)NC[C@H](N)C(=O)OC)c1
IC50 [1]: 880 nM
IC50 [2]: 58 nM

SMILES: CCn1c(=O)[nH]c(=O)c2c1nc(Cc1cn3ccccc3n1)n2Cc1ccc(-c2ccn(C)n2)cc1
half-life [3]: 19 min
Papp B→A at 5 µM [4]: 46.3 ×10⁻⁶ cm/s
fraction unbound [5]: 0.29
half-life [6]: > 60 min
CLint scaled [7]: < 115 mL/min/kg
Papp A→B at 5 µM [8]: 2.3 ×10⁻⁶ cm/s
solubility [9]: > 200 µM
solubility [10]: > 200 µM
solubility [11]: > 200 µM
fraction unbound [12]: 0.39
CLint scaled [13]: 367 mL/min/kg

SMILES: CCn1c(=O)[nH]c(=O)c2c1nc(Cc1cn3cc(C)sc3n1)n2CC1CCCCC1
IC50 [1]: 394 nM
IC50 [2]: 152 nM

Second part, the molecule after the results:

IC50 [1]: 343 nM
IC50 [2]: 38 nM
SMILES: CCn1c(=O)[nH]c(=O)c2c1nc(Cc1cn3cc(C)sc3n1)n2CCCOC

IC50 [1]: 107 nM
IC50 [2]: 26 nM
SMILES: CCOC(=O)CCCn1c(Cc2cn3cc(C)sc3n2)nc2c1c(=O)[nH]c(=O)n2CC

IC50 [1]: 81 nM
IC50 [2]: 32 nM
SMILES: CCn1c(=O)[nH]c(=O)c2c1nc(Cc1cn3cc(C)sc3n1)n2CC=C(C)C

IC50 [1]: 300 nM
IC50 [2]: 37 nM
SMILES: CCOC(=O)Cn1c(Cc2cn3cc(C)sc3n2)nc2c1c(=O)[nH]c(=O)n2CC

IC50 [1]: 676 nM
IC50 [2]: 116 nM
SMILES: CCn1c(=O)[nH]c(=O)c2c1nc(Cc1cn3cc(C)sc3n1)n2CCC=C(C)C

IC50 [1]: 533 nM
IC50 [2]: 57 nM
SMILES: CCn1c(=O)[nH]c(=O)c2c1nc(Cc1cn3cc(C)sc3n1)n2CCC(=O)OC

IC50 [1]: 690 nM
IC50 [2]: 69 nM
SMILES: CCn1c(=O)[nH]c(=O)c2c1nc(Cc1cn3cc(C)sc3n1)n2CCCC(=O)O

IC50 [1]: 100 nM
t1/2 [3]: 42 min
Papp B→A at 5 µM [4]: 57 ×10⁻⁶ cm/s
Papp A→B at 5 µM [14]: 0.45 ×10⁻⁶ cm/s
fraction unbound [5]: 0.17
half-life [6]: 67 min
CLint scaled [7]: 19 mL/min/kg
Papp A→B at 5 µM [8]: 1.29 ×10⁻⁶ cm/s
solubility [11]: 173 µM (≈ 66.5 µg/mL)
fraction unbound [12]: 0.06
Papp B→A at 5 µM [15]: 54 ×10⁻⁶ cm/s
IC50 [2]: 23 nM
SMILES: CCn1c(=O)[nH]c(=O)c2c1nc(Cc1cn3cc(C)sc3n1)n2CC1CC1

IC50 [1]: > 10000 nM
IC50 [2]: > 10000 nM
SMILES: CCn1c(=O)[nH]c(=O)c2c1nc(Cc1cn3cc(C)sc3n1)n2CC(=O)O
